Experimental data: PubChem BioAssay (NCI)
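48-hour exposure; five concentrations; linearly interpolated endpoints. Abbreviation: GI50, concentration required for 50% inhibition of growth. TGI is the concentration that stops growth completely.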

Experiments:
Assay in all cases: NCI anticancer screen, dose series, 48 h
HT29 colon = tested on: HT29 colon
PC-3 prostate = tested on: PC-3 prostate
MCF7 breast = tested on: MCF7 breast
HCT-15 colon = tested on: HCT-15 colon
IGROV1 ovarian = tested on: IGROV1 ovarian
NCI/ADR-RES ovarian = tested on: NCI/ADR-RES ovarian
EKVX NSCLC = tested on: EKVX NSCLC
MDA-MB-231 breast = tested on: MDA-MB-231 breast
SW-620 colon = tested on: SW-620 colon
U251 CNS = tested on: U251 CNS
CAKI-1 renal = tested on: CAKI-1 renal
T-47D breast = tested on: T-47D breast
SF-539 CNS = tested on: SF-539 CNS
HCC-2998 colon = tested on: HCC-2998 colon
LOX IMVI melanoma = tested on: LOX IMVI melanoma
COLO 205 colon = tested on: COLO 205 colon
TK-10 renal = tested on: TK-10 renal
M14 melanoma = tested on: M14 melanoma
MDA-MB-435 = tested on: MDA-MB-435
OVCAR-5 ovarian = tested on: OVCAR-5 ovarian
SK-OV-3 ovarian = tested on: SK-OV-3 ovarian
786-0 renal = tested on: 786-0 renal
HOP-92 NSCLC = tested on: HOP-92 NSCLC
K-562 leukemia = tested on: K-562 leukemia
SN12C renal = tested on: SN12C renal
NCI-H522 lung = tested on: NCI-H522 lung
UACC-62 melanoma = tested on: UACC-62 melanoma
BT-549 breast = tested on: BT-549 breast
A549 NSCLC = tested on: A549 NSCLC
ACHN renal = tested on: ACHN renal
OVCAR-4 ovarian = tested on: OVCAR-4 ovarian
A498 renal = tested on: A498 renal
UACC-257 melanoma = tested on: UACC-257 melanoma
MOLT-4 leukemia = tested on: MOLT-4 leukemia
SNB-19 CNS = tested on: SNB-19 CNS
RXF 393 renal = tested on: RXF 393 renal
HS 578T breast = tested on: HS 578T breast
UO-31 renal = tested on: UO-31 renal
OVCAR-3 ovarian = tested on: OVCAR-3 ovarian
CCRF-CEM leukemia = tested on: CCRF-CEM leukemia
SR leukemia = tested on: SR leukemia
SK-MEL-28 melanoma = tested on: SK-MEL-28 melanoma
HOP-62 NSCLC = tested on: HOP-62 NSCLC
NCI-H23 lung = tested on: NCI-H23 lung
RPMI-8226 leukemia = tested on: RPMI-8226 leukemia
SK-MEL-5 melanoma = tested on: SK-MEL-5 melanoma
HL-60(TB) leukemia = tested on: HL-60(TB) leukemia
NCI-H226 lung = tested on: NCI-H226 lung
MALME-3M melanoma = tested on: MALME-3M melanoma
NCI-H460 lung = tested on: NCI-H460 lung
SNB-75 CNS = tested on: SNB-75 CNS
KM12 colon = tested on: KM12 colon
SK-MEL-2 melanoma = tested on: SK-MEL-2 melanoma
SF-268 CNS = tested on: SF-268 CNS
HCT-116 colon = tested on: HCT-116 colon

COc1ccc(NCc2cnc3nc(N)nc(N)c3c2C)cc1
TGI (HT29 colon): > 100 µM | TGI (PC-3 prostate): > 100 µM | TGI (MCF7 breast): > 100 µM | TGI (HCT-15 colon): > 100 µM | TGI (IGROV1 ovarian): > 100 µM | TGI (NCI/ADR-RES ovarian): > 100 µM | TGI (EKVX NSCLC): > 100 µM | TGI (MDA-MB-231 breast): 962 nM | TGI (SW-620 colon): > 100 µM | TGI (U251 CNS): > 100 µM | TGI (CAKI-1 renal): > 100 µM | TGI (T-47D breast): > 92.8 µM | TGI (SF-539 CNS): > 100 µM | TGI (HCC-2998 colon): > 31.6 µM | TGI (LOX IMVI melanoma): > 100 µM | TGI (COLO 205 colon): > 100 µM | TGI (TK-10 renal): > 100 µM | TGI (M14 melanoma): > 100 µM | TGI (MDA-MB-435): > 100 µM | TGI (OVCAR-5 ovarian): > 100 µM | TGI (SK-OV-3 ovarian): > 100 µM | TGI (786-0 renal): > 100 µM | TGI (HOP-92 NSCLC): > 89.5 µM | TGI (K-562 leukemia): > 100 µM | TGI (SN12C renal): > 100 µM | TGI (NCI-H522 lung): > 100 µM | TGI (UACC-62 melanoma): > 100 µM | TGI (BT-549 breast): > 100 µM | TGI (A549 NSCLC): > 100 µM | TGI (ACHN renal): > 100 µM | TGI (OVCAR-4 ovarian): > 100 µM | TGI (A498 renal): > 100 µM | TGI (UACC-257 melanoma): > 100 µM | TGI (MOLT-4 leukemia): > 100 µM | TGI (SNB-19 CNS): > 100 µM | TGI (RXF 393 renal): > 100 µM | TGI (HS 578T breast): > 100 µM | TGI (UO-31 renal): > 100 µM | TGI (OVCAR-3 ovarian): > 100 µM | TGI (CCRF-CEM leukemia): > 100 µM | TGI (SR leukemia): > 100 µM | TGI (SK-MEL-28 melanoma): > 100 µM | TGI (HOP-62 NSCLC): > 100 µM | TGI (NCI-H23 lung): > 100 µM | TGI (RPMI-8226 leukemia): > 100 µM | TGI (SK-MEL-5 melanoma): > 100 µM | TGI (HL-60(TB) leukemia): > 100 µM | TGI (NCI-H226 lung): > 93.9 µM | TGI (MALME-3M melanoma): > 100 µM | TGI (NCI-H460 lung): > 100 µM | TGI (SNB-75 CNS): > 100 µM | TGI (KM12 colon): > 100 µM | TGI (SK-MEL-2 melanoma): > 100 µM | TGI (SF-268 CNS): > 100 µM

Cc1cc(Nc2ccc(F)cc2)nc(N2CCN(c3ccnc4cc(Cl)ccc34)CC2)n1
GI50 (HT29 colon): 2960 nM | TGI (HT29 colon): > 100 µM | GI50 (PC-3 prostate): 1790 nM | TGI (PC-3 prostate): > 100 µM | GI50 (MCF7 breast): 2690 nM | TGI (MCF7 breast): > 100 µM | GI50 (HCT-15 colon): 2270 nM | TGI (HCT-15 colon): > 100 µM | GI50 (NCI/ADR-RES ovarian): 2880 nM | TGI (NCI/ADR-RES ovarian): > 100 µM | GI50 (SW-620 colon): 3.44 µM | TGI (SW-620 colon): > 100 µM | GI50 (HCC-2998 colon): 4.05 µM | TGI (HCC-2998 colon): > 100 µM | GI50 (LOX IMVI melanoma): 2940 nM | TGI (LOX IMVI melanoma): > 100 µM | GI50 (COLO 205 colon): 1800 nM | TGI (COLO 205 colon): 4.39 µM | GI50 (K-562 leukemia): 2490 nM | TGI (K-562 leukemia): > 100 µM | GI50 (A549 NSCLC): 3.75 µM | TGI (A549 NSCLC): > 100 µM | GI50 (ACHN renal): 2840 nM | TGI (ACHN renal): > 100 µM | GI50 (CCRF-CEM leukemia): 2990 nM | TGI (CCRF-CEM leukemia): > 100 µM | GI50 (HOP-62 NSCLC): 4.06 µM | TGI (HOP-62 NSCLC): > 100 µM | GI50 (RPMI-8226 leukemia): 2250 nM | TGI (RPMI-8226 leukemia): > 100 µM | GI50 (NCI-H226 lung): 4.75 µM | TGI (NCI-H226 lung): > 100 µM | GI50 (NCI-H460 lung): 2950 nM | TGI (NCI-H460 lung): > 100 µM | GI50 (KM12 colon): 2780 nM | TGI (KM12 colon): 75 µM | GI50 (HCT-116 colon): 2150 nM | TGI (HCT-116 colon): > 100 µM
